Measured values as given in PubChem BioAssay (NCI).
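Following 48 hours of exposure in 96-well plates, responses at five concentrations were used to interpolate endpoints linearly. Definition used: TGI = concentration required for complete inhibition of growth.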

Legend:
Assay in all cases: DTP human tumour cell line panel, 48 h
[1] = tested on: 786-0 renal
[2] = tested on: A498 renal
[3] = tested on: A549 NSCLC
[4] = tested on: ACHN renal
[5] = tested on: CAKI-1 renal
[6] = tested on: CCRF-CEM leukemia
[7] = tested on: COLO 205 colon
[8] = tested on: DLD-1 colon
[9] = tested on: EKVX NSCLC
[10] = tested on: HCC-2998 colon
[11] = tested on: HCT-116 colon
[12] = tested on: HCT-15 colon
[13] = tested on: HL-60(TB) leukemia
[14] = tested on: HOP-18 NSCLC
[15] = tested on: HOP-62 NSCLC
[16] = tested on: HOP-92 NSCLC
[17] = tested on: HT29 colon
[18] = tested on: IGROV1 ovarian
[19] = tested on: K-562 leukemia
[20] = tested on: KM20L2 colon
[21] = tested on: LOX IMVI melanoma
[22] = tested on: LXFL 529 NSCLC
[23] = tested on: M14 melanoma
[24] = tested on: M19-MEL melanoma
[25] = tested on: MALME-3M melanoma
[26] = tested on: NCI-H226 lung
[27] = tested on: NCI-H23 lung
[28] = tested on: NCI-H460 lung
[29] = tested on: NCI-H522 lung
[30] = tested on: OVCAR-3 ovarian
[31] = tested on: OVCAR-5 ovarian
[32] = tested on: OVCAR-8 ovarian
[33] = tested on: RPMI-8226 leukemia
[34] = tested on: RXF 393 renal
[35] = tested on: RXF-631 renal
[36] = tested on: SF-268 CNS
[37] = tested on: SF-295 CNS
[38] = tested on: SF-539 CNS
[39] = tested on: SK-MEL-2 melanoma
[40] = tested on: SK-MEL-5 melanoma
[41] = tested on: SK-OV-3 ovarian
[42] = tested on: SN12C renal
[43] = tested on: SNB-19 CNS
[44] = tested on: SNB-75 CNS
[45] = tested on: SNB-78 CNS
[46] = tested on: SR leukemia
[47] = tested on: SW-620 colon
[48] = tested on: TK-10 renal
[49] = tested on: U251 CNS
[50] = tested on: UACC-257 melanoma
[51] = tested on: UACC-62 melanoma
[52] = tested on: UO-31 renal
[53] = tested on: XF 498 CNS
[54] = tested on: DMS 114 small cell lung
[55] = tested on: DMS 273 small cell lung
[56] = tested on: KM12 colon
[57] = tested on: MOLT-4 leukemia
[58] = tested on: OVCAR-4 ovarian
[59] = tested on: SK-MEL-28 melanoma

O=C(Cc1ccccc1)N/N=C(\C1=Nc2ccc([N+](=O)[O-])cc2NC1O)C(O)c1ccc([N+](=O)[O-])cc1 (stereo unspecified)
TGI [1]: > 100 µM
TGI [2]: > 100 µM
TGI [3]: > 100 µM
TGI [4]: > 100 µM
TGI [5]: > 100 µM
TGI [6]: > 100 µM
TGI [7]: > 100 µM
TGI [8]: > 100 µM
TGI [9]: > 100 µM
TGI [10]: > 100 µM
TGI [11]: > 100 µM
TGI [12]: > 100 µM
TGI [13]: > 100 µM
TGI [14]: > 100 µM
TGI [15]: > 100 µM
TGI [16]: > 100 µM
TGI [17]: > 100 µM
TGI [18]: > 100 µM
TGI [19]: > 100 µM
TGI [20]: > 100 µM
TGI [21]: > 100 µM
TGI [22]: > 100 µM
TGI [23]: > 100 µM
TGI [24]: > 100 µM
TGI [25]: > 100 µM
TGI [26]: > 100 µM
TGI [27]: > 100 µM
TGI [28]: > 100 µM
TGI [29]: > 100 µM
TGI [30]: > 100 µM
TGI [31]: > 100 µM
TGI [32]: > 100 µM
TGI [33]: > 100 µM
TGI [34]: > 100 µM
TGI [35]: > 100 µM
TGI [36]: > 100 µM
TGI [37]: > 100 µM
TGI [38]: > 100 µM
TGI [39]: > 100 µM
TGI [40]: > 100 µM
TGI [41]: > 100 µM
TGI [42]: > 100 µM
TGI [43]: > 100 µM
TGI [44]: > 100 µM
TGI [45]: > 100 µM
TGI [46]: > 100 µM
TGI [47]: > 100 µM
TGI [48]: > 100 µM
TGI [49]: > 100 µM
TGI [50]: > 100 µM
TGI [51]: > 100 µM
TGI [52]: > 100 µM
TGI [53]: > 100 µM

O=C1CC2C(=O)N(Cc3ccccc3)C1C(S(=O)(=O)c1ccccc1)C2S(=O)(=O)c1ccccc1 (stereo unspecified)
TGI [1]: 9.68 µM
TGI [2]: 32.2 µM
TGI [3]: 33.2 µM
TGI [4]: 3.24 µM
TGI [5]: 1.85 µM
TGI [6]: 3.46 µM
TGI [7]: 3.18 µM
TGI [8]: 3.13 µM
TGI [54]: 2.72 µM
TGI [55]: 18.6 µM
TGI [10]: 20.7 µM
TGI [11]: 15.9 µM
TGI [12]: 2.91 µM
TGI [13]: 3.51 µM
TGI [14]: 13.8 µM
TGI [15]: 36.9 µM
TGI [16]: 4.24 µM
TGI [17]: 5.1 µM
TGI [18]: 36 µM
TGI [19]: 6.66 µM
TGI [56]: 29.7 µM
TGI [20]: 7.4 µM
TGI [21]: 3.32 µM
TGI [22]: 2.61 µM
TGI [23]: 4.22 µM
TGI [24]: 4.09 µM
TGI [25]: 3.87 µM
TGI [57]: 7.72 µM
TGI [26]: 27.8 µM
TGI [27]: 10.7 µM
TGI [28]: 34.9 µM
TGI [29]: 1.38 µM
TGI [30]: 3.65 µM
TGI [58]: 4.74 µM
TGI [31]: 31.9 µM
TGI [32]: 5.19 µM
TGI [33]: 18.4 µM
TGI [34]: 3.5 µM
TGI [35]: 28.1 µM
TGI [36]: 12.1 µM
TGI [37]: 37.4 µM
TGI [38]: 4.18 µM
TGI [59]: 3.72 µM
TGI [40]: 29.2 µM
TGI [41]: 31.5 µM
TGI [42]: 3.18 µM
TGI [44]: 21.2 µM
TGI [45]: 36.1 µM
TGI [46]: 10.5 µM
TGI [47]: 1.69 µM
TGI [48]: 3.95 µM
TGI [49]: 8.61 µM
TGI [50]: 3.25 µM
TGI [51]: 5.22 µM
TGI [52]: 22.6 µM
TGI [53]: 3.53 µM

C/C=C(/CCCCNCCCC)[Si](C)(C)C
TGI [1]: 25.5 µM
TGI [2]: 29.4 µM
TGI [3]: 30.3 µM
TGI [4]: 26.9 µM
TGI [6]: 73.4 µM
TGI [7]: 27.9 µM
TGI [8]: 29.8 µM
TGI [54]: 33.5 µM
TGI [55]: 38.2 µM
TGI [9]: 25.8 µM
TGI [10]: 18.2 µM
TGI [11]: 26.6 µM
TGI [12]: 30 µM
TGI [16]: 20.9 µM
TGI [17]: 14.7 µM
TGI [18]: 37 µM
TGI [19]: 45 µM
TGI [56]: 30.6 µM
TGI [20]: 21.7 µM
TGI [21]: 28.3 µM
TGI [22]: 29.3 µM
TGI [23]: 27.7 µM
TGI [24]: 33 µM
TGI [25]: 33.2 µM
TGI [57]: 31.2 µM
TGI [27]: 31.9 µM
TGI [28]: 31.9 µM
TGI [29]: 25.3 µM
TGI [30]: 28.3 µM
TGI [31]: 27.6 µM
TGI [32]: 31.8 µM
TGI [34]: 21 µM
TGI [35]: 31.3 µM
TGI [36]: 26.2 µM
TGI [37]: 29.2 µM
TGI [38]: 28.4 µM
TGI [39]: 33.1 µM
TGI [59]: 29.4 µM
TGI [40]: 26.6 µM
TGI [41]: 33.6 µM
TGI [42]: 30.5 µM
TGI [43]: 31.8 µM
TGI [44]: 27 µM
TGI [45]: 29.7 µM
TGI [46]: 35.1 µM
TGI [47]: 34.1 µM
TGI [48]: 28.6 µM
TGI [49]: 26.3 µM
TGI [50]: 30.3 µM
TGI [51]: 32.7 µM
TGI [52]: 31.4 µM
TGI [53]: 23.7 µM
